Usually Ki stands for a dissociation constant, usually derived from enzyme kinetics or from competition with a known ligand. Broadly, the Kd is the free concentration of one partner at which half of the binding sites on the other are occupied at equilibrium, for simple one-to-one binding.

Among the data in patent US7256286B2, “Bryostatin analogues, synthetic methods and uses” (The Board of Trustees of the Leland Stanford Junior …, priority 1999, dated 2007) are Ki, EC50 and Kd values, retold here.

Where two headings read alike, the source gives them in different places.

For one experiment, the target named is T1, PKCδ-C1B (Mus musculus, UniProt P28867).
T1 construct: made in house
T1 sequence (P28867 231-281 limits assumed): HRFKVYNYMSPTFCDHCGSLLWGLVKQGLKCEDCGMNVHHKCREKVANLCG
Nature of the experiment: PKCδ-C1B assay. Type of experiment: binding. The protocol:
Phosphatidyl serine vesicles are prepared by the addition of phosphatidyl serine (10 mg/mL in chloroform, 0.4 mL) to a glass test tube followed by removal of the chloroform under a stream of nitrogen (5 min). […] The resulting solution is stored over ice. […] Stock solutions of compounds are diluted with absolute ethanol in glass in serial fashion. […] The tubes are incubated at 37° C. for 90 min. and then put on ice for 5 min. Each tube is then filtered separately through a pre-soaked filter disc. […] The filter is subsequently rinsed with cold 20 mM TRIS buffer (5 mL) dropwise. […] The filters are immediately counted in a scintillation counter (Beckman LS 6000SC). Counts per minute are averaged among three trials at each concentration.

The next experiment has as its system P388 cell line. Put plainly: P388 murine lymphocytic leukemia cell assay. Type of experiment: cell-based. Particulars: Mus musculus, P388, 120 h; 5 days incubation, MTT; read-out: P388 Assay ED50. As for the experimental part: Cells from a P388 cell line (CellGate, Inc., Sunnyvale, Calif.) are grown in RPMI 1640 cell medium containing fetal calf serum (10%), L-glutamine, penicillin, streptomycin and are split twice weekly. All compounds are first diluted with DMSO. Later serial dilutions are done with a phosphate buffer solution (HYQ DPBS modified phosphate buffered saline). All dilutions are done in glass vials and the final DMSO concentration is always below 0.5% by volume. Final two-fold dilutions are done in a 96 well plate using cell media so that each well contains 50 μL. All compounds are assayed in quadruplicate over 12 concentrations. Cell concentration is measured using a hemacytometer and the final cell concentration is adjusted to 1×10^4 cells/mL with cell medium. The resulting solution of cells (50 μL) is then added to each well and the plates are incubated for 5 days in a 37° C., 5% CO2, humidified incubator (Sanyo CO2 incubator). MTT solution (3-[4,5-dimethylthiazol-2-yl]-2,5-diphenyltetrazolium bromide, 10 μL) is then added to each well and the plates are re-incubated under identical conditions for 2 h. To each well is then added acidified isopropanol (150 μL of i-PrOH solution containing 0.05 N HCl) and mixed thoroughly. The plates are then scanned at 595 nm and the absorbances are read (Wallac Victor 1420 Multilabel Counter). The resulting data is then analyzed to determine an ED50 value using the Prism software package (GraphPad).

Experiment [1] has as its target PKC purified from rat brain (mixture of PKC isoenzymes). Put plainly: Protein kinase C (isozyme mix) assay. Type of experiment: binding. The note with it: determined under identical conditions to the PKC isozyme mix assay; read-out: Kd of [H^3]-PDBu. As for the experimental part: In one approach, anticancer activity of compounds of the invention can be assessed using the protein kinase C assay detailed in Example 5. In this assay, Ki values are determined for analogues based on competition with radiolabeled phorbol 12,13-dibutyrate for binding to a mixture of PKC isoenzymes. PKC enzymes are implicated in a variety of cellular responses which may be involved in the activity of the bryostatins.
The following procedure was used, based on a modification of a previous procedure described by Tanaka et al. (1986). Filters (Whatman GF-B, 21 mm diam.) are soaked for 1 h in a solution containing deionized water (97 mL), and 10% polyethyleneamine (3 mL). A filtering buffer solution containing TRIS (1M, pH 7.4, 10 mL) and water (490 mL) is prepared and cooled on ice. […] Non-specific binding is measured in 1–3 tubes by the substitution of phorbol myristate acetate (PMA) (1 mM, 5 μL) and EtOH (15 μL) for the analogue/EtOH combination. […] The filters are immediately counted in a scintillation counter (Beckman LS 6000SC). […] The data is then plotted using a least squares fit algorithm with the Macintosh version of Kaleidagraph© (Abelbeck Software) and an IC50 (defined as the concentration of analogue required to displace half of the specific PDBU binding to PKC) is calculated. […]

In turn, `CCCCCCCC(=O)O[C@H]1/C(=C/C(=O)OC)CC2C[C@H]([C@@H](C)O)OC(=O)C[C@H](O)C[C@@H]3CCC[C@H](C[C@@H]4CCO[C@H](/C=C/C(C)(C)[C@]1(O)O2)O4)O3` [Formula 1998a, reference compound] displayed an inhibition constant (Ki) on PKCδ-C1B of 5.1 nM. In the experiment with P388 cell line, the EC50 turned out to be 76 nM.
`COC(=O)/C=C1\C[C@H]2C[C@H]([C@@H](C)O)OC(=O)C[C@H](O)C[C@@H]3CCC[C@H](C[C@@H]4CCO[C@H](/C=C/C(C)(C)[C@](O)(O2)C1OC(C)=O)O4)O3` (stereo partly drawn) [Formula 702.2]: the inhibition constant (Ki) on PKCδ-C1B (competition with tritiated phorbol 12,13-dibutyrate, read-out: PKCδ-C1B Assay Ki) is 232 ± 11 nM. Also, the EC50 with P388 cell line is 181 nM.
As to `CCCC(=O)O[C@@H]1[C@@H](C)[C@@]2(O)[C@@H](C=C(CO)C[C@]3(O)C(=O)C(C)=C[C@@H]23)[C@@H]2C(C)(C)[C@]12OC(=O)CCC` [Phorbol dibutyrate, phorbol 12,13-dibutyrate, reference compound], the Kd turned out to be 1.7 nM on PKCδ-C1B (Kd value printed in the Ki column) and 1.55 nM in experiment [1].
